In test [1] the test system is lymph node cells (LNC). The experiment in a line: CD4/CD8 ratio of activated LNC by flow cytometry (Example 2). To be noted: activated LNC from immunised mice, 4 per group. The test is classed as cell-based, mouse. The protocol:
Lymph nodes from a different group of mice immunised in the same manner were removed 10 days after injection of the peptides and single cell suspensions of lymph node cells (LNC) were prepared.
(3) Other LNC were incubated with antibodies against CD4 or CD8, and the ratio of CD4 to CD8 was determined using flow cytometric techniques. LNC were centrifuged through a Ficoll gradient and washed with PBS containing 1% FCS and 0.01% sodium azide (wash buffer). Aliquots of 1 million cells were incubated with antibodies specific for CD4 (clone RM4-5; rat IgG2a) or CD8a (clone 53-6.7; rat IgG2a) together with an antibody specific for the TCR β-chain (H57-597; hamster IgG) for 30 min at 4° C. in the dark, followed by FITC-conjugate anti-rat κ-chain or PE-conjugated anti-hamster IgG for 30 min at 4° C. in the dark. Isotype-matched primary antibodies were used as controls. All antibodies were purchased from PharMingen (San Diego, Calif.) and were used at 1 μg/ml dilution in wash buffer. After washing, cells were resuspended in wash buffer and analysed using a FACSCalibur flow cytometer (Becton Dickinson, Franklin Lakes, N.J.).
A general note: In flow cytometry, cells or beads pass a laser one at a time.

The test system of test [2] is SJL/J mouse. Briefly: EAE induction by W144, co-immunisation with Q144 or S-palm Q144 (Example 4). The test is classed as in vivo. As for the experimental part: One mg per mL of W144 peptide, either alone or together with Q144 peptide or S-palm Q144 peptide at different molar ratios, was emulsified in an equal volume of complete Freund's adjuvant containing an additional 4 mg/ml Mycobacterium tuberculosis H37Ra. 200 μl of the emulsion (i.e. 100 μg W144) was then injected subcutaneously in a single site on the back of each SJL/J mouse. Each mouse also received 300 ng pertussis toxin intravenously on the same day as the peptide emulsion and then 3 days later.
(§1) The mice were inspected and weighed daily and scored for disease using a 5 point severity scale: 0=no disease; 1=decreased tail tone; 2=no tail tone; 3=hind limb weakness; 4=hind limb paralysis; 5=moribund.

The test system of test [3] is SJL/J mice. The experiment in a line: Induction of EAE by immunisation with peptide in complete Freund's adjuvant (Example 2). The test is classed as in vivo, mouse. To be noted: for Day of Onset / Incidence: EAE; for Day of Onset / Incidence / Score: mice immunised with the peptide in CFA; for Incidence: followed for 6 weeks; for Score: clinical score of EAE; for Duration: duration of the first episode of disease. The protocol:
In examples 2 and 4-8, PLP encephalitogenic epitopes were injected into SJL/J mice to induce EAE, so the mice could be used as an animal model for MS. Such a model has been used in numerous studies, including where preventative or treatment methods for MS are being investigated. The study described in Hofstetter et al., 2007, for example, describes the induction of EAE in SJL mice at pages 1373-1374.
Mice were immunised with the above non-palmitoylated, S-palmitoylated or N-palmitoylated peptides in complete Freund's adjuvant to induce EAE.
(1) Mice were followed for 6 weeks to determine the induction of EAE.

For test [4], the system named is SJL/J mouse. Briefly: EAE induction by F188, co-immunisation with A188 or S-palm A188 (Example 5). In kind it is in vivo. As for the experimental part:
One mg per mL of F188 peptide, either alone or together with A188 peptide or S-palm A188 peptide at different molar ratios, was emulsified in an equal volume of complete Freund's adjuvant containing an additional 4 mg/ml Mycobacterium tuberculosis H37Ra. 200 μl of the emulsion (i.e. 100 μg F188) was then injected subcutaneously in a single site on the back of each SJL/J mouse. Each mouse also received 300 ng pertussis toxin intravenously on the same day as the peptide emulsion and then 3 days later.
as §1

The subject of test [5] is SJL/J mice. Briefly: Therapeutic treatment of established S-palm-PLP178-191-induced EAE (Example 7). The following applies: 100 μL of 1 mg/mL in PBS s.c. at score 2.0 or 2.5, followed for 7 days, versus PBS, FIG. 6. In kind it is in vivo, mouse. As for the experimental part: SJL/J mice were injected subcutaneously with 100 μg S-palm-F188 (S-palm-PLP178-191), i.e. 100 μl of a 1 mg/ml solution emulsified in an equal volume (i.e. 100 μl Complete Freund's Adjuvant containing an extra 4 mg/mL Mycobacterium tuberculosis H37Ra. Each mouse also received 300 ng pertussis toxin intravenously on the same day as the peptide emulsion and then 3 days later.
The mice were then inspected and scored for disease using a 5 point severity scale: 0=no disease; 1=decreased tail tone; 2=no tail tone; 3=hind limb weakness; 4=hind limb paralysis; 5=moribund.
When the mice reached a score between 2.0 or 2.5, each mouse was injected subcutaneously with 100 μL PBS (n=6), 100 μL of 1 mg/mL A188 in PBS (n=6), or 100 μL of 1 mg/mL S-palm-A188 in PBS (n=7).
Mice were then followed for 7 days, and scored each day.

Test [6] concerns endoplasmic reticulum (ER). The experiment in a line: Colocalisation of peptide with endoplasmic reticulum in macrophages, confocal microscopy (Example 3). To be noted: 30 or 60 minutes incubation, FIG. 4. The test is classed as cell-based, mouse. As for the experimental part: (§2) For confocal microscopy, macrophages were isolated from normal 8-12-wk old female SJL/J mice peritoneal cell suspensions by adhesion to glass coverslips. The macrophages were then incubated with 100 μM peptide for between 1 min and 24 h at 37° C., the peptide being one of:
(§3) After incubation, cells were fixed with 4% formaldehyde in PBS for 15 min at room temperature and permeabilised with 0.05% digitonin in PBS for 5 min at room temperature or 0.2% Triton X-100 in PBS for 20 min at room temperature.
(§4) The cells were then incubated with murine antibodies against endosomes, lysosomes, endoplasmic reticulum, or MHC class I or II molecules for 1-3 hours at 37° C. After three washes in PBS, cells were incubated with streptavidin-Alexa 488 (1/400 dilution in PBS) or streptavidin-Cy3 (1/450 dilution in PBS) (both from Molecular Probes) and Texas Red-labeled rabbit anti-mouse IgG or IgM for 30 min in the dark at room temperature. After washing with PBS, coverslips were mounted in Aquapolymount medium. Immunofluorescence staining was monitored with a laser scanning microscope (LSM 510; Carl Zeiss Laboratories) equipped with a Plan-Apochromat 63× oil DIC immersion lens (numerical aperture 1.4). […] Quantification of colocalisation was performed on cells from 10 to 12 fields (at least 100 cells) with the colocalisation module of the Zeiss LSM Image Browser software.

Test [7] deals with lysosomes. The experiment in a line: Colocalisation of peptide with lysosomes in macrophages, confocal microscopy (Example 3). The test is classed as cell-based, mouse. To be noted: FIG. 3. The protocol: as §2, §3, §4
Test [8] concerns MHC class II molecules. The experiment in a line: Colocalisation of peptide with MHC class II in macrophages, confocal microscopy (Example 3). In kind it is cell-based, mouse. To be noted: FIG. 5. As for the experimental part:
as §2, §3, §4

Test [9] relates to endosomes. Briefly: Colocalisation of peptide with endosomes in macrophages, confocal microscopy (Example 3). To be noted: FIG. 3. The test is classed as cell-based, mouse. As for the experimental part:
as §2, §3, §4

In test [10] the test system is MHC class I molecules. The experiment in a line: Colocalisation of peptide with MHC class I in macrophages, confocal microscopy (Example 3). In kind it is cell-based, mouse. To be noted: FIG. 5. As for the experimental part:
as §2, §3, §4

[11] abbreviates: EAE, 100 μg W144 alone in CFA s.c.

Consider “H2N-HCLGKWLGHPDKF-CO2H (H-HCLGKWLGHPDKF-OH) [PLP139-151]”, for which the “CD4/CD8 Ratio (mean ± SEM)” value in test [1] is reported as 2.18 ± 0.19. For the same substance, in [2] (setting [11]), the Incidence is on record as 4/4 and the “Mean day of onset” value was 11.5 days. The substance also showed a Mean severity in test [2] (mean maximum severity of mice that developed EAE, 5 point scale, W144 alone) of 4.3. Besides, in test [3], the “Day of Onset” value was found to be 11.0 ± 1.4 days, the Incidence was 4/4, the Score is given as 3.0 ± 0.7 and the Duration is recorded as 5.8 ± 1.8.

Turning to “H2N-KTTICGKGLSATVT-CO2H (H-KTTICGKGLSATVT-OH) [PLP104-117]”, in test [1], the “CD4/CD8 Ratio (mean ± SEM)” value came out at 2.31 ± 0.07. In [3], the Incidence is given as 0/4 and the Score is 0.

Consider “H2N-NTWTTCQSIAAPSK-CO2H (H-NTWTTCQSIAAPSK-OH) [A188]”, for which the “Protective effect on EAE (in words)” value in test [4] (injected at a dose 5 times greater than the encephalitogenic peptide F188) is reported as “protective”. Further, the “Mean EAE score after treatment” value in [5] is “intermediate between the control group and the S-palm-A188-treated group”.

Consider “H2N-NTWTTCQSIAFPSK-CO2H (H-NTWTTCQSIAFPSK-OH) [PLP178-191]”, for which, in test [3], the “Day of Onset” value was found to be 13.0 ± 1.5 days, the Incidence is 5/5, the Score is 2.7 ± 0.9 and the Duration came out at 5.8 ± 0.4. Further, in test [4] (5 point scale, F188 alone), the Mean severity was 2.8 ± 0.3. For the same substance, in test [4] (EAE, 100 μg F188 alone in CFA s.c.), the Incidence was 8/8. Besides, the “Mean day of onset” value in [4] (EAE, F188 alone) worked out at 11.3 ± 0.5 days.

With “PLP139-151 Cys140-Palm Lys150-Biot (S-palm) (HCLGKWLGHPDKF) [S-palm peptide]”, the “Colocalisation with endoplasmic reticulum (ER)” value in test [6] is “but not S-palm peptide colocalised strongly”. Also, the Colocalisation with lysosomes entry in [7] is reported as “colocalised strongly with lysosomes”. For the same substance, the “Colocalisation with MHC class II” value in [8] was “colocalised strongly with MHC class II”. In addition, the Colocalisation with endosomes entry in test [9] is “colocalised rapidly and strongly with endosomes”. In addition, the “Colocalisation with MHC class I” value in test [10] is on record as “only a small percentage”.

As for “PLP139-151 His139-Palm Lys150-Biot (N-palm) (HCLGKWLGHPDKF) [N-palm peptide]”, the “Colocalisation with endoplasmic reticulum (ER)” value in test [6] is reported as “colocalised strongly with endoplasmic reticulum (ER)”. Further, in test [7], the Colocalisation with lysosomes entry is “did not colocalise strongly with lysosomes in most cells”. In test [9], the Colocalisation with endosomes result was “did not colocalise strongly with endosomes in most cells”. Further, the “Colocalisation with MHC class I” value in [10] is “colocalised strongly with MHC class I”.

The values are drawn from patent US20120294886A1, “PEPTIDE CONJUGATES FOR SUPPRESSING AN IMMUNE RESPONSE, METHODS OF MAKING AND USES THEREFOR” (The University of Queensland, priority 2011, published 2012).
